Legend:
DC-SIGNR = target: T1, DC-SIGNR (Homo sapiens, UniProt Q9H2X3); type: binding; settings: data not shown
T1 construct: expressed in transfected cells; host or cells: HEK 293T, transient transfection; cDNA a gift from Dr R. W. Doms

CMV = CMV trans-infection assay: virus-pulsed DC-SIGN+ cells co-cultured with MRC-5 cells; type: cell-based, Human Cytomegalovirus; settings: MD-DC, DC-SIGN+ THP-1 or DC-SIGN+ HeLa cells pre-incubated before pulse with CMV
Experimental: For trans-infection experiments, cells were incubated with viral suspensions (CMV, VZV or HSV-1, MOI=1) for 2 hr, at 37° C. Thereafter, unbound viral particles were removed by extensive washes and cells were co-cultured with sub-confluent MRC-5 or U373 MG cell monolayers. After 24 to 72 hr, infected MRC-5 or U373-MG cells were fixed, permeabilized and stained with specific mAbs directed against IEA- or EA-CMV (mAbs E13 and 2A2, respectively), VZV (mAb 2013) or HSV (mAb CHA-437) (Argen Biosoft, Varilhes, France). When indicated MD-DC or THP-1 (parental or DC-SIGN^+) cells were incubated with EGTA (5 mM), mannan or anti-DC-SIGN (1B10.2.6 mAb) for 30 minutes at 4° C. prior challenge with infectious preparations. Infection by ADGFP strain was assessed by counting GFP-expressing cells at day 3. For long term infectivity experiments DC-SIGN^+ or parental THP-1 cells were incubated with ADGFP (MOI=1) for 4 hr at 37° C. After extensive washes, infected cells were incubated at 37° C. and an aliquot of these cells was added to a sub-confluent MRC-5 cell culture every 2 days during the assay.
MD-DC, THP-1 or HeLa expressing DC-SIGN were incubated with a mutant CMV strain encoding a GFP (ADGFP) (Borst et al., 2001). […]
The capacity of DC-SIGN to enhance infectiveness of CMV was assessed. […]

DC-SIGN [1] = target: T2, DC-SIGN (Homo sapiens, UniProt Q9NNX6); type: binding; set-up: expressed in transfected cells; settings: data not shown
T2 sequence (Q9NNX6 1-404): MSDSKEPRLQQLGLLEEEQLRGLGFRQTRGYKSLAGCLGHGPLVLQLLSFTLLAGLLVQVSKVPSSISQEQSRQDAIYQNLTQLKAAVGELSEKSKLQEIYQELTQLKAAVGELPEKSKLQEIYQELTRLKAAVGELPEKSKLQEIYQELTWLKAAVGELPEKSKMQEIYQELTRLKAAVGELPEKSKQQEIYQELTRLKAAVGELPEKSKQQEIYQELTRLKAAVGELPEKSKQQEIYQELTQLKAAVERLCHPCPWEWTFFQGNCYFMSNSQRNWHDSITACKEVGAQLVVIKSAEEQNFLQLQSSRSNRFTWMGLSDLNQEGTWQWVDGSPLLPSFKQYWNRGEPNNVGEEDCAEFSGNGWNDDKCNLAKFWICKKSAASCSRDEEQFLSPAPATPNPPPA

DC-SIGN [2] = target: T2, DC-SIGN; experiment: HIV-1 gp120 binding competition assay on DC-SIGN+ THP-1 cells; set-up: expressed in transfected cells; host or cells: THP-1 (gift of Dr. D. R. Littman; Kwon et al., 2002); settings: DC-SIGN+ THP-1 cells pre-treated with competitors (20 μg/ml)
Experimental: DC-SIGN^+ THP-1 cells were washed two times, resuspended in ice-cold binding buffer (1 mM CaCl2, 2 mM MgCl2 and 0.1% Bovine Serum Albumin in PBS) at 10^6 cells/mL and pre-treated or not for 15 minutes with competitors (20 μg/ml). Thereafter, recombinant biotinylated CXCR4-tropic (MN isolate) HIV-1 gp120 (2 μg/ml; Immunodiagnostics Inc., Woburg, Mass.) was added for 30 minutes at 4° C.
In this assay we pre-incubated DC-SIGN^+ THP-1 cells with purified HIV-1 gp120, CMV gB, HSV-1 gB, VZV gB, HSV-1 gD or VZV gE. Following exposure to each single envelope glycoprotein, cells were incubated with biotinylated HIV-1 gp120, which binding to DC-SIGN^+ THP-1 cells was evidenced by immunostaining and FACS analysis.

DC-SIGN [3] = target: T2, DC-SIGN; experiment: Binding of CMV virions to DC-SIGN-expressing cells (flow cytometry, anti-CMV gB mAb); type: cell-based; set-up: expressed in transfected cells; host or cells: THP-1 (gift of Dr. D. R. Littman; Kwon et al., 2002); settings: pre-incubation of cells with the substance
Experimental: The capacity of CMV to bind DC-SIGN was investigated. Parental and DC-SIGN^+ THP-1 cells, or immature monocyte-derived DC (MD-DC) were incubated on ice with increasing concentrations of CMV and the presence of cell-bound virions was quantified by flow cytometry using a mAb directed against the CMV gB.

T1 sequence (Q9H2X3 whole entry): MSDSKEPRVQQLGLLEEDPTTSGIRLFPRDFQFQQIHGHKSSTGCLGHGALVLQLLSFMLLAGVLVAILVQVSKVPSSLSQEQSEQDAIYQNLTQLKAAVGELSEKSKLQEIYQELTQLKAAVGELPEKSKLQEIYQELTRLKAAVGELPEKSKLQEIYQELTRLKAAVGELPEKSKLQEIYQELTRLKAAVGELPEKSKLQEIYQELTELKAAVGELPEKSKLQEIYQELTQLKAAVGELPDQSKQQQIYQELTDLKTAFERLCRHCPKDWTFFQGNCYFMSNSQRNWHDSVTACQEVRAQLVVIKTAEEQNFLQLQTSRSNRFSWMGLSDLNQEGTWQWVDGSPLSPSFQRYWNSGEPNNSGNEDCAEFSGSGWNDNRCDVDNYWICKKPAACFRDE

O=C(O)CN(CCOCCOCCN(CC(=O)O)CC(=O)O)CC(=O)O [EGTA]
Binding of HIV-1 gp120 and CMV gB to HEK 293T cells expressing DC-SIGNR (DC-SIGNR): blocked | Trans-infection of MRC-5 cells / transmission of CMV from DC-SIGN+ cells to MRC-5 cells (CMV): prevented | Binding of HIV-1 gp120 and CMV gB to HEK 293T cells expressing DC-SIGN (DC-SIGN [1]): blocked

mannan
Trans-infection of MRC-5 cells / transmission of CMV from DC-SIGN+ cells to MRC-5 cells (CMV): prevented | Binding of biotinylated HIV-1 gp120 on DC-SIGN (competition) (DC-SIGN [2]): competitive effect | CMV virion attachment to cells (DC-SIGN [3]): Abrogation

From patent publication US7427469B2, “Method of treating cytomegalovirus with DC-SIGN blockers” (priority 2002, dated 2008)
